Test systems include CCRF-CEM; Hs-578T; MDA-N; DU-145; A498; SF-268; RXF 393; KM12; K562; PC-3; SW-620; TK-10; SK-OV-3; NCI-H460; MDA-MB-435; SK-MEL-2; M14; RPMI-8226; SK-MEL-5.
Common to all, as to test: NCI tumour cell line growth inhibition, 48 h

Structures are written as SMILES.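 Interpolation was linear, between the two tested concentrations surrounding the appropriate level; five concentrations were tested over 48 hours in 96-well plates. At the GI50, growth is halved.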 The source made the active and inactive calls. Cut-off read from the data, not from the text of the source: active = GI50 up to about 1.1 µM and inactive = higher. Square brackets hold non-standard residues; d marks the D form. Peptide text beside a SMILES is read from it. * marks the point of attachment. ξ: configuration not given here. NMeY = CN[C@@H](Cc1ccc(O)cc1)C(=O)O; Cbz = O=C(OCc1ccccc1)*; ξA = CC(N)C(=O)O Where only a bound is given, the exact number is not on record here.

Regarding `Cc1ccc([S@+]([O-])c2occc2C=O)cc1`, the GI50 with CCRF-CEM is 1.64 µM (inactive); in the experiment on Hs-578T, 16.4 µM (inactive); with MDA-N, 4.44 µM (inactive); in the experiment on DU-145, 19 µM (inactive); with A498 it was 17.1 µM (inactive); in the experiment with SF-268 it was 5.38 µM (inactive). The GI50 is 13.3 µM (inactive) in the experiment with RXF 393; 17.2 µM (inactive) in the experiment with KM12; 1.85 µM (inactive) in the experiment on K562; 5.02 µM (inactive) in the experiment with PC-3; 1.93 µM (inactive) with SW-620; 14.3 µM (inactive) in the experiment on TK-10. Moreover, the GI50 was 13.6 µM (inactive) with SK-OV-3; 9.91 µM (inactive) with NCI-H460; 7.55 µM (inactive) in the experiment on MDA-MB-435; 15 µM (inactive) in the experiment with SK-MEL-2; 6.9 µM (inactive) in the experiment with M14; 1.91 µM (inactive) in the experiment with RPMI-8226. Moreover, in the experiment on SK-MEL-5, the GI50 was 10.4 µM (inactive).
As for `Fc1ccc(N2C(=S)SC(=N\c3ccccc3)/C2=N/c2ccccc2)cc1`, the GI50 in the experiment on CCRF-CEM was 25.9 µM (inactive); with Hs-578T it was 81.3 µM (inactive); with MDA-N it was > 100 µM (inactive); in the experiment on DU-145, > 100 µM (inactive); in the experiment with A498, > 100 µM (inactive); in the experiment on SF-268 it was > 100 µM (inactive). In addition, the GI50 was > 100 µM (inactive) with RXF 393; 73.1 µM (inactive) with KM12; 14.9 µM (inactive) in the experiment on K562; > 16.7 µM (inactive) in the experiment with PC-3; > 100 µM (inactive) in the experiment on SW-620; > 100 µM (inactive) with TK-10. Also, the GI50 in the experiment with SK-OV-3 was > 100 µM (inactive); with NCI-H460 it was > 100 µM (inactive); in the experiment with MDA-MB-435, > 100 µM (inactive); in the experiment with SK-MEL-2, > 40.5 µM (inactive); in the experiment with M14, > 100 µM (inactive); in the experiment on RPMI-8226, 32.8 µM (inactive). Also, in the experiment with SK-MEL-5, the GI50 was 41.3 µM (inactive).
On to `Nc1ncc(CN2CCOCC2)c(-c2ccccc2O)n1`, for which the GI50 in the experiment with CCRF-CEM, in the experiment on Hs-578T, in the experiment with MDA-N, in the experiment with DU-145, in the experiment on A498 and in the experiment with SF-268 was > 100 µM (inactive) throughout. Moreover, the GI50 with RXF 393, with KM12, in the experiment with K562, in the experiment on PC-3, in the experiment on SW-620 and in the experiment on TK-10 was > 100 µM (inactive) in each case. Moreover, the GI50 in the experiment on SK-OV-3, with NCI-H460, with MDA-MB-435, in the experiment on SK-MEL-2, with M14 and in the experiment with RPMI-8226 was > 100 µM (inactive) throughout. Besides, the GI50 in the experiment with SK-MEL-5 was > 100 µM (inactive).
`CCOC(=O)c1cn2c(n1)sc1cc(F)ccc12`: the GI50 in the experiment with CCRF-CEM was > 100 µM (inactive); in the experiment with Hs-578T, 64.3 µM (inactive); in the experiment with MDA-N, 19.4 µM (inactive); with DU-145 it was > 100 µM (inactive); in the experiment on A498, 30.8 µM (inactive); with SF-268 it was 82.2 µM (inactive). In addition, the GI50 with RXF 393 is 85.1 µM (inactive); in the experiment with KM12 it was 62.8 µM (inactive); in the experiment with K562, > 100 µM (inactive); in the experiment on PC-3, > 100 µM (inactive); in the experiment with SW-620 it was > 100 µM (inactive); with TK-10, > 100 µM (inactive). For the same compound, the GI50 with SK-OV-3 was > 100 µM (inactive); with NCI-H460, > 100 µM (inactive); with MDA-MB-435 it was 42.3 µM (inactive); in the experiment with SK-MEL-2, > 100 µM (inactive); with M14, 64.4 µM (inactive); in the experiment on RPMI-8226, > 100 µM (inactive). In addition, in the experiment on SK-MEL-5, the GI50 was > 100 µM (inactive).
Turning to `COc1ccc(N2C(=O)C3c4[nH]c5ccc(Br)cc5c4C4CCC(C(C)(C)C)CC4C3C2=O)cc1` (stereo not given), the GI50 in the experiment with CCRF-CEM, with Hs-578T, in the experiment with MDA-N, in the experiment on DU-145, with A498 and with SF-268 was > 100 µM (inactive) each time. Moreover, the GI50 with RXF 393, in the experiment with KM12, with K562, in the experiment with PC-3, in the experiment with SW-620 and with TK-10 was > 100 µM (inactive) throughout. Also, the GI50 was > 100 µM (inactive) in the experiment on SK-OV-3; > 100 µM (inactive) in the experiment on NCI-H460; > 100 µM (inactive) in the experiment on MDA-MB-435; > 100 µM (inactive) in the experiment with SK-MEL-2; 94.2 µM (inactive) with M14; > 100 µM (inactive) in the experiment with RPMI-8226. Also, in the experiment on SK-MEL-5, the GI50 was > 100 µM (inactive).
On to `COc1ccc(NS(=O)(=O)c2ccc3ncn(NS(=O)(=O)c4ccc(I)cc4)c(=O)c3c2)cc1`, for which the GI50 in the experiment on CCRF-CEM was 64.7 µM (inactive); in the experiment with Hs-578T, > 100 µM (inactive); in the experiment on MDA-N it was > 100 µM (inactive); with DU-145, > 100 µM (inactive); in the experiment on A498, > 100 µM (inactive); in the experiment with SF-268, > 100 µM (inactive). In addition, the GI50 in the experiment on RXF 393 is > 100 µM (inactive); in the experiment with KM12, 8.89 µM (inactive); in the experiment with K562, 7.26 µM (inactive); in the experiment with PC-3 it was > 100 µM (inactive); in the experiment on SW-620, > 100 µM (inactive); in the experiment on TK-10 it was > 100 µM (inactive). In addition, the GI50 with SK-OV-3 is > 100 µM (inactive); in the experiment on NCI-H460, > 100 µM (inactive); in the experiment on MDA-MB-435, 84.1 µM (inactive); in the experiment with SK-MEL-2, > 100 µM (inactive); with M14, > 100 µM (inactive); in the experiment on RPMI-8226 it was 6.03 µM (inactive). Moreover, the GI50 with SK-MEL-5 was > 100 µM (inactive).
As for `CCOC(=O)/C(C#N)=C/c1ccc2c(-c3c(OCC)ccc4cc(/C=C(\C#N)C(=O)OCC)ccc34)c(OCC)ccc2c1`, the GI50 in the experiment on CCRF-CEM, in the experiment on Hs-578T, in the experiment with MDA-N, in the experiment on DU-145, in the experiment with A498 and in the experiment on SF-268 was > 100 µM (inactive) in each case. Further, the GI50 in the experiment on RXF 393, in the experiment with KM12, with K562, with PC-3, with SW-620 and with TK-10 was > 100 µM (inactive) each time. The GI50 was > 100 µM (inactive) with SK-OV-3; > 100 µM (inactive) with NCI-H460; > 100 µM (inactive) in the experiment on MDA-MB-435; > 100 µM (inactive) with SK-MEL-2; 15.7 µM (inactive) in the experiment with M14; > 100 µM (inactive) in the experiment on RPMI-8226. In addition, in the experiment with SK-MEL-5, the GI50 was > 100 µM (inactive).
In the case of `COc1ccc(/C(CCl)=C(\Nc2ccccc2)c2ccc(OC)c(OC)c2)cc1OC`, the GI50 was 97.9 µM (inactive) in the experiment on CCRF-CEM; > 100 µM (inactive) in the experiment on Hs-578T; > 100 µM (inactive) in the experiment with MDA-N; > 100 µM (inactive) with DU-145; > 100 µM (inactive) with A498; > 100 µM (inactive) in the experiment with SF-268. Moreover, the GI50 with RXF 393 is 36.1 µM (inactive); with KM12, > 100 µM (inactive); in the experiment with K562 it was 58.3 µM (inactive); in the experiment on PC-3, 65 µM (inactive); with SW-620 it was > 100 µM (inactive); in the experiment with TK-10, > 100 µM (inactive). Moreover, the GI50 in the experiment on SK-OV-3 was > 100 µM (inactive); in the experiment on NCI-H460, 82.6 µM (inactive); with MDA-MB-435 it was > 100 µM (inactive); with SK-MEL-2 it was > 100 µM (inactive); in the experiment with M14 it was > 100 µM (inactive); in the experiment on RPMI-8226 it was 68.2 µM (inactive). Further, the GI50 in the experiment on SK-MEL-5 is 71.9 µM (inactive).
Take `C/C1=C\[C@H](C)C[C@H](C)OC(=O)[C@H](C)NC(=O)[C@@H](Cc2ccc(O)c(Br)c2)N(C)C(=O)[C@H](C)NC(=O)[C@@H](C)C1`: the GI50 in the experiment on CCRF-CEM is 0.0124 µM (active); with Hs-578T it was 0.094 µM (active); in the experiment on MDA-N, 0.0982 µM (active); in the experiment on DU-145, 0.155 µM (active); in the experiment with A498, 0.0149 µM (active); in the experiment with SF-268, 0.0331 µM (active). For the same compound, the GI50 with RXF 393 is 0.0656 µM (active); in the experiment on KM12, 0.731 µM (active); in the experiment on K562, 0.0836 µM (active); with PC-3 it was 0.0335 µM (active); in the experiment with SW-620 it was 0.00385 µM (active); with TK-10, 0.0724 µM (active). Also, the GI50 was 0.0495 µM (active) in the experiment with SK-OV-3; 0.00701 µM (active) in the experiment on NCI-H460; 0.0735 µM (active) with MDA-MB-435; 0.0502 µM (active) with SK-MEL-2; 0.118 µM (active) in the experiment with M14; 0.0295 µM (active) with RPMI-8226. Also, the GI50 in the experiment on SK-MEL-5 is 0.0127 µM (active).
In the case of `COc1ccc(C[C@@H](C(=O)N[C@@H](C)C(N)=O)N(C)C(=O)[C@@H]2CCCN2C(=O)[C@H](CC(C)C)NC(=O)C(C)NC(=O)OCc2ccccc2)cc1` (stereo not given in full) (Cbz-[ξA]LP[NMeY](Me)A-NH2), the GI50 is > 100 µM (inactive) in the experiment with CCRF-CEM; 4.94 µM (inactive) in the experiment on Hs-578T; > 100 µM (inactive) in the experiment with MDA-N; > 100 µM (inactive) in the experiment with DU-145; > 100 µM (inactive) in the experiment with A498; > 100 µM (inactive) with SF-268. Moreover, the GI50 with RXF 393 is > 100 µM (inactive); with KM12, > 100 µM (inactive); in the experiment with K562, 84.3 µM (inactive); with PC-3, 61.7 µM (inactive); in the experiment on SW-620, > 100 µM (inactive); with TK-10 it was > 100 µM (inactive). The GI50 in the experiment with SK-OV-3, with NCI-H460, with MDA-MB-435, in the experiment with SK-MEL-2, in the experiment on M14 and in the experiment with RPMI-8226 was > 100 µM (inactive) each time. Moreover, the GI50 in the experiment on SK-MEL-5 was 76.2 µM (inactive).

The values above are taken from ChEMBL document CHEMBL1201862, “PubChem BioAssay data set” (2004).
